Measurements published in PubChem BioAssay (NCI).
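1) Cells in 96-well plates. 2) Compound, 48 h, 5 concentrations. 3) Linear interpolation between surrounding doses. 4) Unreached endpoint = highest concentration. GI50: concentration for 50% inhibition of growth. TGI denotes the concentration required for complete inhibition of growth.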

How the values were obtained:
Experiment in all cases: NCI anticancer screen, dose series, 48 h
ACHN renal = system: ACHN renal
HCT-15 colon = system: HCT-15 colon
HOP-92 NSCLC = system: HOP-92 NSCLC
KM12 colon = system: KM12 colon
NCI-H460 lung = system: NCI-H460 lung
NCI/ADR-RES ovarian = system: NCI/ADR-RES ovarian
SF-295 CNS = system: SF-295 CNS
SNB-19 CNS = system: SNB-19 CNS
UO-31 renal = system: UO-31 renal
DU-145 prostate = system: DU-145 prostate

SMILES	TGI (ACHN renal) [µM]	TGI (HCT-15 colon) [µM]	TGI (HOP-92 NSCLC) [µM]	TGI (KM12 colon) [µM]	TGI (NCI-H460 lung) [µM]	TGI (NCI/ADR-RES ovarian) [µM]	TGI (SF-295 CNS) [µM]	TGI (SNB-19 CNS) [µM]	TGI (UO-31 renal) [µM]	GI50 (ACHN renal) [µM]	GI50 (DU-145 prostate) [µM]	TGI (DU-145 prostate) [µM]	GI50 (HCT-15 colon) [µM]	GI50 (HOP-92 NSCLC) [µM]	GI50 (KM12 colon) [µM]	GI50 (NCI/ADR-RES ovarian) [µM]	GI50 (SF-295 CNS) [µM]	GI50 (SNB-19 CNS) [µM]	GI50 (UO-31 renal) [µM]
C/C(Cl)=N\OC(=O)Nc1ccc(C)cc1	29.1	31.5	37.1	35.1	33.4	42.1	30.5	> 100	31.3	–	–	–	–	–	–	–	–	–	–
COc1cc(-c2n/c(=C\c3c(O)[nH]c4ccc(Cl)cc34)cc3c2=Nc2ccccc2-3)ccc1F	3.76	6.98	3.82	5.01	–	5.04	5.55	4.11	2.5	1.85	2.18	4.8	2.49	1.73	2.28	2.03	2.34	1.87	1.12
O=C1C=CC=C/C1=C1\N=C(c2ccccc2OCC(=O)c2ccccc2)SS1	> 100	> 100	> 100	> 100	> 100	> 100	> 100	> 100	> 100	–	–	–	–	–	–	–	–	–	–
COc1ccc(OC2OC(CO)C(OCc3ccccc3)C(OCc3ccccc3)C2OCc2ccccc2)cc1 (stereo not given)	> 100	–	–	> 100	> 100	> 100	> 100	> 100	> 100	–	–	> 100	–	–	–	–	–	–	–
COC(=O)C1C(C(=O)OC)C2(OC(c3ccc(Cl)cc3)=CC2=O)C12OC(c1ccc(Cl)cc1)=CC2=O (stereo not given)	39.4	35.2	37.6	–	41.5	–	64.3	> 100	33.6	–	–	> 100	–	–	–	–	–	–	–
CC1C(NNc2ccccc2)Oc2cc3c(cc2C1c1ccccc1O)OCO3 (stereo not given)	13.1	15.2	26.9	16.8	18.5	–	3.49	27.4	11	–	–	15.1	–	–	–	–	–	–	–
C=C1C(OC2O[C@@H]3O[C@@]4(C)CC[C@H]5[C@H](C)CC[C@@H](C2=C)[C@@]35O4)O[C@@H]2O[C@@]3(C)CC[C@H]4[C@H](C)CC[C@@H]1[C@@]24O3 (stereo not given in full)	> 50	> 50	> 50	> 50	> 50	–	> 50	> 50	> 50	–	–	> 50	–	–	–	–	–	–	–
COc1ccc(C2C3=C(COC3=O)Oc3cc4c(cc32)OCO4)c(OC)c1 (stereo not given)	> 100	> 100	–	> 100	> 100	> 100	29.8	> 100	> 100	–	–	> 100	–	–	–	–	–	–	–
C=C(C)OCOCCOC	> 100	> 100	–	> 100	> 100	> 100	> 100	> 100	> 100	–	–	> 100	–	–	–	–	–	–	–
O=C(O)c1cccc2cccc(-c3cccc4cccc(C(=O)O)c34)c12	> 100	> 100	–	> 100	> 100	> 100	> 100	> 100	> 100	–	–	> 100	–	–	–	–	–	–	–
CO[C@H]1SC[C@H](OC(C)=O)[C@H](OC(C)=O)[C@H]1OC(C)=O	> 100	> 100	–	> 100	> 100	> 100	> 100	> 100	> 100	–	–	> 100	–	–	–	–	–	–	–
CC1CCC2(NC1)OC1CC3C4CC=C5CC(OC6OC(CO)C(OC7OC(C)C(O)C(O)C7O)C(O)C6OC6OC(C)C(O)C(O)C6O)CCC5(C)C4CCC3(C)C1C2C (stereo not given)	14.6	16.9	21.1	9.17	9.16	–	3.94	28.3	21.1	–	–	8.61	–	–	–	–	–	–	–
CCOC(=O)C1(C#N)C(c2ccccc2)CC(O)(c2ccc(Cl)cc2)C(C(=O)c2ccc(Cl)cc2)C1c1ccccc1 (stereo not given)	> 100	> 100	–	> 100	> 100	–	> 100	90.8	> 100	–	–	–	–	–	–	–	–	–	–
CN1C(=O)N(C)C(O)C(Cl)(Br)C1=O (stereo not given)	> 100	> 100	–	> 100	> 100	> 100	> 100	> 100	> 100	–	–	> 100	–	–	–	–	–	–	–
CS(=O)(=O)CSCSSCS(C)(=O)=O	> 100	> 84.8	98.2	> 100	> 84.8	–	55.7	> 100	> 58.3	–	–	–	–	–	–	–	–	–	–
CCOC(=O)c1s/c(=N\Nc2nc3ccccc3cc2C2OCCO2)n(Cc2ccccc2)c1C	> 100	> 100	> 100	> 100	> 100	–	> 100	> 100	> 100	–	–	–	–	–	–	–	–	–	–
Cc1c(CN2CCN(C)CC2)c(CN2CCN(C)CC2)c(C)n1-c1ccc(Cl)cc1	> 100	> 100	–	> 100	> 100	> 100	48.9	> 100	87.9	–	–	> 100	–	–	–	–	–	–	–
CC(C)(C)OC(=O)NC(Cc1ccccc1)NC(=O)NC(=O)OCc1ccccc1 (stereo not given)	> 100	> 100	–	> 100	> 100	> 100	> 100	> 100	> 100	–	–	> 100	–	–	–	–	–	–	–
COc1cc(CC(C)NC(C)=O)cc(OC)c1 (stereo not given)	> 100	> 100	–	> 100	> 100	> 100	> 100	> 100	> 100	–	–	> 100	–	–	–	–	–	–	–
O=C(CCc1cc(O)cc(O)c1)NCCCNC(=O)CCc1cc(O)cc(O)c1	> 100	> 100	> 100	> 100	–	> 100	> 100	> 100	> 100	–	–	> 100	–	–	–	–	–	–	–
CS(=O)(=O)Nc1ccc2c(c1)N(S(C)(=O)=O)CC2CCl (stereo not given)	> 100	> 100	> 100	> 100	> 100	> 100	> 100	–	> 100	–	–	> 100	–	–	–	–	–	–	–
COC(=O)[C@@H]1CCCCC[C@H]2C(CO)=C(C)C(=O)C12 (stereo not given in full)	> 100	> 100	> 100	> 100	> 100	–	> 100	> 100	> 100	–	–	–	–	–	–	–	–	–	–
O=C1C=CC(=O)N1n1c(-c2ccccc2)n[nH]c1=O	–	> 100	–	–	> 100	> 100	> 100	–	–	–	–	> 100	–	–	–	–	–	–	–
